This note sets out measurements from patent US3963745A, “Method for controlling emesis with N-(1-substituted-3-pyrrolidinyl)benzamides and thiobenzamides” (A. H. Robins Company, Incorporated, priority 1974, dated 1976).

Holding throughout (assay type): in vivo
For series [1], the system named is apomorphine-induced emesis. Description: apomorphine-induced emesis in dogs (anti-emetic effect). Particulars: for ED50: Canis lupus familiaris. The procedure: The anti-emetic properties of the compounds of Formulae I and II were established using a modification of the methods of Chen and Ensor, J. Pharmac. Exp. Ther. 98: 245-250 (1950) and of Leonard et al, J. Pharmac. Exp. Ther. 154, 339-345 (1966). Drug activity was assessed by its ability to reduce the frequency of apomorphine-induced emesis in dogs. The dogs were prescreened for fairly constant emetic responses to the subcutaneous administration of 0.1 mg./kg. of apomorphine hydrochloride, and those which vomited five or more times in the 40-minute period after apomorphine administration were selected for drug studies.
Groups of three dogs were used in preliminary tests and for the determinations of time of peak drug effect. Dose response curves were usually obtained using four drug-treated groups; each group contained at least three dogs. The dogs were fed approximately 17 hours prior to a test. Drugs were administered and at suitable intervals the dogs received 0.1 mg/kg of apormorphine hydrochloride subcutaneously. Frequency of emesis was determined during the next 40 minutes and emesis was counted as the actual expulsion of stomach contents.
In oral studies, drugs were administered in gelatin capsules (controls received an empty capsule). In the subcutaneous studies, drugs were administered in distilled water and/or polyethylene glycol-300.
Dogs were re-used at intervals of not less than one week. The ED50 is the dose which reduces the frequency of emesis of drug treated dogs to a value 50% below that of controls. Mean frequency of emesis for each drug treated group was compared with a mean control value derived by pooling the prior control emetic frequencies for all dogs used on that test day. The difference is expressed as a percentage decrease relative to controls. The per cent decrease in mean frequency of emesis for each drug-treated group (ordinate) was plotted against log dose (abscissa) on semi-log graph sheets. The ED50 was calculated by the method of Goldstein (Biostatistics, An Introductory Test; Pages 156-161; the MacMillan Co., New York, 1964).

For series [2], the system named is catalepsy in rats. Kind of series: Catalepsy in rats. Particulars: Table 7, rats, IP. The procedure: (§1) Drugs were blind tested with positive and negative controls. The procedure used is a modification of the method previously described by Tedeschi et al., Archs. Int. Pharmacodyn. Ther. 122, 129-143 (1959). The modified procedure is as follows.
(§2) Groups of six rats are dosed (IP) with drugs in saline solution and tested hourly over a 6 hour period. A phenothiazine or non-phenothiazine reference standard is tested concomitantly as a positive control; negative controls receive only the saline vehicle. After administration the rats are positioned hourly with each foot on a No. 7 rubber stopper. A rat is considered cataleptic if it remains immobile on the stoppers for five seconds or longer at two or more consecutive hourly observation intervals. […] Exp. Ther. 96, 99-113 (1949).

Series [3] can be described thus: Catalepsy in rats. Particulars: rat, in vivo, ip. On the procedure:
as §1, §2

The mark [4] stands for this setting: sc, Table 4, dogs, subcutaneous, doses expressed as free base, read-out: ED50, Anti-Emetic Effect of Subcutaneous Administration.
The mark [5] stands for this setting: sc, Table 7, dogs, subcutaneous, as free base, read-out: Anti-Apomorphine Effect ED50.
The mark [6] stands for this setting: sc, read-out: ED50, Anti-Emetic Effect of Subcutaneous Administration.
The mark [7] stands for this setting: sc, Table 6, dogs, subcutaneous, as free base, read-out: Anti-Apomorphine Effect ED50.
Setting [8] is: Table 5, dogs, oral, doses expressed as free base, read-out: ED50, Anti-Emetic Effect of Oral Administration.

Structures are written as SMILES. Counter-ions that a name gives are not always drawn. Like-named read-outs stand apart in the source and are kept apart here.

As to `O=C(NC1CCN(C2CCCCC2)C1)c1cccc(Br)c1` (stereo not drawn) [Example 1, N-(1-Cyclohexyl-3-pyrrolidinyl)-3-bromobenzamide], the ED50 in series [1] (setting [4]) was determined as 0.4 mg/kg.
In the case of `O=C(NC1CCN(C2CCCCC2)C1)c1ccccc1F` (stereo not drawn) [Example 2, N-(1-Cyclohexyl-3-pyrrolidinyl)-2-fluorobenzamide hydrochloride], the ED50 in series [1] (setting [4]) worked out at 1.6 mg/kg.
As for `CN(C(=O)c1ccc(N)cc1)C1CCN(C2CCCCC2)C1` (stereo not drawn) [Example 4, 4-Amino-N-(1-cyclohexyl-3-pyrrolidinyl)-N-methylbenzamide Cyclohexanesulfamate], the ED50 came to 0.27 mg/kg in series [1] (setting [5]); 0.43 mg/kg in series [1] (sc, dogs, subcutaneous, cyclohexanesulfamate salt dose, read-out: ED50 for subcutaneous administration); 0.27 mg/kg in series [1] (sc, dogs, subcutaneous, expressed as free base (Example 1P), read-out: ED50 for subcutaneous administration, expressed as free base). Further, in series [1] (dogs, oral capsules 2.5 mg./kg., apomorphine after two hours), the blockage of apomorphine induced emesis is 95%. In series [1] (dogs, subcutaneous 5.0 mg./kg. (3.12 mg./kg. as free base), apomorphine one hour later, 40-minute period), this compound displayed a blockage of emesis of 100%. For the same compound, the “Catalepsy (ED50 or other): no catatonia up to dose” value with catalepsy in rats [2] (as free base) is reported as “no catatonia to 125”.
Turning to `CN(C)c1ccc(C(=O)N(C)C2CCN(C3CCCCC3)C2)cc1` (stereo not drawn) [Example 6, N-(1-Cyclohexyl-3-pyrrolidinyl)-p-dimethylamino-N-methylbenzamide Fumarate], the ED50 in series [1] (setting [4]) was 1.1 mg/kg.
As for `CC(=O)Nc1ccc(C(=O)NC2CCN(C3CCCCC3)C2)cc1` (stereo not drawn) [Example 7, N-(1-Cyclohexyl-3-pyrrolidinyl)-4-acetamidobenzamide], the ED50 in series [1] (setting [6]) turned out to be 2.4 mg/kg.
On to `CN1CCC(NC(=O)c2ccccc2)C1.O=C(O)/C=C/C(=O)O` (stereo not drawn) [Example 8(A), N-(1-Methyl-3-pyrrolidinyl)benzamide Fumarate, reference compound], for which the ED50 in series [1] (setting [7]) was 3.2 mg/kg.
On the same count and under the same terms, as for `COc1cc(N)c(Cl)cc1C(=O)NC1CCN(C)C1` (stereo not drawn) [Example 8(B), 4-Amino-5-chloro-2-methoxy-N-(1-methyl-3-pyrrolidinyl)benzamide, reference compound], the figure is 0.053 mg/kg.
For the compound `CNc1ccc(C(=O)N(C)C2CCN(C3CCCCC3)C2)cc1.Cl.Cl` (stereo not drawn) [Example 9, 4-Methylamino-N-(1-cyclohexyl-3-pyrrolidinyl)-N-methylbenzamide Dihydrochloride], in series [1] (setting [4]), the ED50 was determined as 0.5 mg/kg.
With `O=C(NC1CCN(C2CCCCC2)C1)c1ccc(F)cc1` (stereo not drawn) [Example 10], the ED50 in series [1] (setting [6]) is 0.15 mg/kg; in series [1] (setting [8]), 1.5 mg/kg.
With `O=C(NC1CCN(C2CCCCC2)C1)c1ccc(Br)cc1` (stereo not drawn) [Example 11], the ED50 in series [1] (setting [4]) was 0.7 mg/kg.
Consider `O=C(NC1CCN(C2CCCCC2)C1)c1cc([N+](=O)[O-])cc([N+](=O)[O-])c1` (stereo not drawn) [Example 12], for which the ED50 in series [1] (setting [6]) worked out at 0.15 mg/kg.
In the case of `O=C(NC1CCN(C2CCCCC2)C1)c1ccc(Cl)c(Cl)c1` (stereo not drawn) [Example 13], in series [1] (setting [4]), the ED50 stood at 0.28 mg/kg.
For `CCOc1ccc(C(=O)NC2CCN(C3CCCCC3)C2)cc1OCC` (stereo not drawn) [Example 15], in series [1] (setting [4]), the ED50 was 0.66 mg/kg.
Regarding `O=C(NC1CCN(C2CCCCC2)C1)c1cccc(C(F)(F)F)c1` (stereo not drawn) [Example 16], in series [1] (setting [4]), the ED50 worked out at 0.18 mg/kg.
As for `O=C(NC1CCN(C2CCCCC2)C1)c1ccc(Cl)cc1` (stereo not drawn) [Example 17], the ED50 in series [1] (setting [4]) worked out at 0.28 mg/kg.
For the compound `COc1cc(C(=O)NC2CCN(C3CCCCC3)C2)cc(OC)c1OC` (stereo not drawn) [Example 18], in series [1] (setting [4]), the ED50 turned out to be 0.4 mg/kg.
`O=C(NC1CCN(C2CCCCC2)C1)c1ccc(I)cc1` (stereo not drawn) [Example 20]: the ED50 in series [1] (setting [4]) turned out to be 1.25 mg/kg.
Turning to `Nc1ccc(C(=O)NC2CCN(C3CCCCC3)C2)cc1` (stereo not drawn) [Example 23], the ED50 came out at 1.67 mg/kg in series [1] (setting [4]), 1.7 mg/kg in series [1] (setting [5]) and 2.5 mg/kg in series [1] (setting [8]). The “Catalepsy, percentage of rats cataleptic” value with catalepsy in rats [2] (at 94.2 mg/kg as free base) worked out at 33%.
Regarding `O=C(NC1CCN(C2CCCCC2)C1)c1ccccc1` (stereo not drawn) [Example 24], the ED50 in series [1] (setting [4]) and in series [1] (setting [7]) was 0.28 mg/kg each time.
On to `O=C(NC1CCN(C2CCCCC2)C1)c1ccc([N+](=O)[O-])cc1` (stereo not drawn) [Example 25], for which the ED50 was 2.03 mg/kg in series [1] (setting [4]) and 1.8 mg/kg in series [1] (setting [5]). The same compound returned a TD50 at 6 h in the series “Catalepsy in rats [3]” of 28 mg/kg.
For `CN(C(=O)c1ccc([N+](=O)[O-])cc1)C1CCN(C2CCCCC2)C1` (stereo not drawn) [Example 27], the ED50 in series [1] (setting [5]) was found to be 10 mg/kg. Further, in the series with catalepsy in rats [2] (as free base), the “Catalepsy (ED50 or other): no catatonia up to dose” value was “no catatonia to 100” and the lethal dose is given as 100 mg/kg.
In the case of `O=C(NC1CCN(C2CCCCC2)C1)c1ccc(Cl)cc1Cl` (stereo not drawn) [Example 32], the ED50 in series [1] (setting [6]) came to 2.4 mg/kg.
For `CSc1ccc(C(=O)NC2CCN(C3CCCCC3)C2)cc1` (stereo not drawn) [Example 33], the ED50 in series [1] (setting [4]) was found to be 0.88 mg/kg.
On to `COc1ccc(C(=O)NC2CCN(C3CCCCC3)C2)c(OC)c1` (stereo not drawn) [Example 34], for which the ED50 in series [1] (setting [4]) is 0.026 mg/kg.
With `CN(C)c1ccc(C(=O)NC2CCN(C3CCCCC3)C2)cc1` (stereo not drawn) [Example 35], in series [1] (setting [4]), the ED50 turned out to be 0.89 mg/kg.
With `Cc1ccc(C(=O)NC2CCN(C3CCCCC3)C2)cc1` (stereo not drawn) [Example 36], the ED50 in series [1] (setting [4]) was 0.31 mg/kg.
`COc1cc(N)c(Cl)cc1C(=O)NC1CCN(C2CCCCC2)C1` (stereo not drawn) [Example 37]: the ED50 in series [1] (setting [4]) and in series [1] (setting [7]) was 0.003 mg/kg in each case.
